BindingDB's records for doi:10.1016/0960-894X(96)00185-0 (1996)

Biological target: Human immunodeficiency virus type 1 protease (Human immunodeficiency virus 1, UniProt Q72874)
Assay: ChEBML_159443
From the text: In vitro inhibitory activity against HIV-1 protease(PR).

| IC50 [nM] | Structure (SMILES) |
| --- | --- |
| 690 | O=c1oc(-c2ccc(O)cc2)cc(O)c1SCc1ccccc1 [3-Benzylsulfanyl-4-hydroxy-6-(4-hydroxy-phenyl)-pyran-2-one] |
| 690 | O=c1oc(-c2cccc(Cl)c2)cc(O)c1SCc1ccccc1 [3-Benzylsulfanyl-6-(3-chloro-phenyl)-4-hydroxy-pyran-2-one] |
